Columns and labels:
[1] = target: T1, recombinant human NPY2 receptor (Homo sapiens, UniProt P49146); assay: cAMP assay, in vitro functional activity on NPY2 receptors; format: cell-based; details: inhibition of Forskolin-induced cAMP in HEK 293 cells overexpressing hNPY2R; average, at least 3 independent tests
T1 construct: expressed in transfected cells; host or cells: HEK 293
T1 sequence (P49146 1-381): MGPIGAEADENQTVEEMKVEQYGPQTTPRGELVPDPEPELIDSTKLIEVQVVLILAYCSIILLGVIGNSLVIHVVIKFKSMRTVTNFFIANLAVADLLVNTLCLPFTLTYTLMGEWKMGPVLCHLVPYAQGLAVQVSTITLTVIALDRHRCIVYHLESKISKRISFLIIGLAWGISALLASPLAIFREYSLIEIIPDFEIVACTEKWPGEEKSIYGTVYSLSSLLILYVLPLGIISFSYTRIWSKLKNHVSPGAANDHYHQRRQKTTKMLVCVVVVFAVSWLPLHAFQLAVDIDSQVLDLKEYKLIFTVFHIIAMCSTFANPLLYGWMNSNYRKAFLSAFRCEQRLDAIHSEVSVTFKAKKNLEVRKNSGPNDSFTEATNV
Description: 2) Preparation of cells: the cultured cells were collected into a 15 mL sterile centrifuge tube, and centrifuged at 1000 rpm for 5 minutes, with the supernatant being discarded. 10 mL of 1×PBS was added, mixed gently, and centrifuged at 1000 rpm for 5 minutes, with the supernatant being discarded.
4) According to the arrangement order of Map analogues, 100 nL of prepared analogues were added to a 384-well cell reaction plate using Echo. After addition, they were centrifuged at 1000 rpm for 1 minute.
5) 5 μL of 2 μM Forskolin (prepared with detection buffer) was added to a 384-well cell reaction plate using Multidrop Combi and centrifuged at 1000 rpm for 1 minute. 5 μL of detection buffer containing cells was added to a 384-well reaction plate, ensuring a cell count of 3000 cells per well.
6) 10 μL cAMP detection reagent solution (1×cell lysis buffer 9.5 mL, 1×D2-cAMP solution, 1×cAMP-antibody) was added to the corresponding wells of the cell reaction plate using Multidrop Combi. It was covered with a lid and incubated at room temperature in the dark for 1 hour.
7) After incubation for 1 hour, it was placed in an EnVision microplate reader for measurement.

[2] = target: T2, human NPY1 receptor (hNPY1R) (Homo sapiens, UniProt P25929); assay: calcium flux (FLIPR) assay, functional activity on human NPY1 receptor; format: cell-based; details: average, at least 3 independent tests
T2 construct: expressed in transfected cells
T2 sequence (P25929 1-384): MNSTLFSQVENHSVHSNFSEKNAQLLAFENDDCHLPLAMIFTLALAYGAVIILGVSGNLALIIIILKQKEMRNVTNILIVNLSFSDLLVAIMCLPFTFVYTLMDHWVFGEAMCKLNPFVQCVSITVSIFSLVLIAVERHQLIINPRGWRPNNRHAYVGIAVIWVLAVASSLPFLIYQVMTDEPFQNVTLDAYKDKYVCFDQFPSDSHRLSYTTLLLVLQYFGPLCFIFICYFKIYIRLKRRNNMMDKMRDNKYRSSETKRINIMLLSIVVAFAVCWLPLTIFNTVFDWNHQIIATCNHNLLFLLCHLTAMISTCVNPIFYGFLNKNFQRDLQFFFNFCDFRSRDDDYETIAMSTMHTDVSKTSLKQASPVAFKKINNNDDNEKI
Description: (§3) 1) Preheated the culture medium, 1×DPBS and 0.05% trypsin EDTA in a 37° C. water bath for more than 30 minutes in advance, and ready for use.
(§4) 3) Cultured cells were taken out from the incubator, added with 1×DPBS, incubated for a moment, suctioned to remove DPBS, added with an appropriate amount of 0.05% trypsin-EDTA for cell digestion, digestion terminated with 10% FBS medium, and dispersed the cells.
(§5) 4) The dispersed cells were transferred into a 50 mL centrifuge tube using a pipette, centrifuged at 1000 rpm for 5 minutes, resuspended in culture medium, dispersed, and counted.
(§6) 5) The cells were diluted with culture medium to 1×10^6 cells/mL, and inoculated at a volume of 20 μL/well of cells onto 384-well poly-Lysine-coated cell plates.
(§7) 6) The cells were incubated overnight at 37° C. in an incubator with 5% CO2. […]
(§8) 4) The calcium ion activation rate was calculated for each well: % Activity=(signal value of sample well-average signal value of low-signal control well)/(average signal value of high-signal control well-average signal value of low-signal control well). Using the logarithm of the concentration of analogues as the horizontal axis and the activation rate of calcium ion fluorescence signal as the vertical axis, the “Nonlinear regression (curve fit)-log (antigen) vs. response Variable slope” model in GraphPad Prism 5.0 was used for fitting to calculate the EC50 of the sample.

[3] = food intake and body weight of normal mice after a single subcutaneous injection; format: in vivo; details: C57BL/6 mice, over 3 days; for Body weight changes: vs baseline
Description: 6-8 weeks old male C57BL/6 mice were fed in animal feeding rooms with strictly controlled environmental conditions, the temperature in the feeding room was maintained at 20° C.-24° C. and the humidity was maintained at 30%-70%. The light cycle in the animal feeding room was 12 hours (starting at 7:00 am and ending at 7:00 pm). During the experiment, animals were kept in single cages and toys were provided in each cage. During the experiment, animals were free to consume food (growth/reproduction feed for mice and rats) and water.
Body weight without fasting and initial food weight before administration were recorded, and the animals were administered with a single subcutaneous injection, and the daily body weight and food intake weight were recorded for 3 days after administration. The activity, water intake, diet, and body weight changes of animals were observed every day. The changes in body weight and food intake weight were calculated compared to the baseline levels of each group (the initial body weight and food intake weight before administration), with body weight changes expressed as percentages (baseline was 100%).

[4] = pharmacokinetics in SD rats; format: in vivo; details: male rat, 0.492 mg/kg single s.c., plasma
Description: (§1) Blood samples were collected from each animal at each time point after administration, and the blood samples were centrifuged at around 4° C., 3200 g, for 10 minutes. Plasma was collected separately, transferred to pre-labeled 96-well plates or polypropylene tubes, speedily frozen on dry ice, and stored at −60° C. or lower until LC-MS/MS analysis.
(§2) LC-MS/MS method was adopted to determine the concentration of the measured analogues in blood samples. The data on the changes in plasma concentration over time were plotted into a chart and analyzed using non partitioned methods with Phoenix WinNonlin 6.3 software program. Relevant PK parameters were calculated based on the administration routes.
The plasma pharmacokinetics of PYY analogues in male SD rats were evaluated after a single subcutaneous administration of 0.492 mg/kg Analogue 3. Blood samples were collected from 3 rats at each time point after administration for 0.5 h, 1 h, 2 h, 4 h, 8 h, 12 h, 16 h, 24 h, 48 h, 72 h, 96 h, 120 h, 144 h, 168 h, extending to 168 h. Due to the use of discontinuous sampling to evaluate the kinetics of PYY analogues in rats, the pharmacokinetic parameters of Analogue 3 after a single subcutaneous administration of 0.492 mg/kg were listed using average concentration-time data.

[5] = pharmacokinetics in crab-eating macaques; format: in vivo; details: male crab-eating macaque, 0.246 mg/kg single s.c., plasma
Description: as §1, §2
The plasma pharmacokinetics of PYY analogues in male crab-eating macaques were evaluated after a single subcutaneous administration of 0.246 mg/kg Analogue 3. Blood samples were collected from 2 crab-eating macaques at each time point after administration for 1 h, 2 h, 4 h, 8 h, 12 h, 24 h, 48 h, 72 h, 96 h, 120 h, 144 h, 168 h, 192 h, 240 h, 288 h, 336 h, 408 h, 504 h, extending to 504 hours. Due to the use of discontinuous sampling to evaluate the kinetics of PYY analogues in crab-eating macaques, the pharmacokinetic parameters of Analogue 3 after a single subcutaneous administration of 0.246 mg/kg were listed using average concentration-time data.

[6] = target: T3, human Y5 receptor (hNPY5R) (Homo sapiens, UniProt Q15761); assay: calcium flux (FLIPR) assay, functional activity on human Y5 receptor; details: read-out: hNPY5R EC50, average, at least 3 independent tests
T3 sequence (Q15761 1-445): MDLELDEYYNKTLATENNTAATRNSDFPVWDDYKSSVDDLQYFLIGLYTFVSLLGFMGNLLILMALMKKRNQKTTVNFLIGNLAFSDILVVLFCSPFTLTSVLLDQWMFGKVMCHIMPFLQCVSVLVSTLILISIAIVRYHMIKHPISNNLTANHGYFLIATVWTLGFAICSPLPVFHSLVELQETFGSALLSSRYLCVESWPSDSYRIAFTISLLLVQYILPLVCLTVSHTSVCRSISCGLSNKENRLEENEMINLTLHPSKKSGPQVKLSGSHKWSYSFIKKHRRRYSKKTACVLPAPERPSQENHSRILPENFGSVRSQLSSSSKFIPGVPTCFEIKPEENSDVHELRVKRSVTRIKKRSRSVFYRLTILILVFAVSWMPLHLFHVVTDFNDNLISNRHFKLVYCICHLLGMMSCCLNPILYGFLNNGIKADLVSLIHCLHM
Description: as §3, §4, §5, §6, §7, §8

| Substance | EC50 [1] | EC50 [2] | Accumulated food intake weight ([3]; 3 nmol/kg single s.c.) | Body weight changes ([3]; 3 nmol/kg single s.c.) | Accumulated food intake weight ([3]; 10 nmol/kg single s.c.) | Body weight changes ([3]; 10 nmol/kg single s.c.) | Accumulated food intake weight ([3]; 30 nmol/kg single s.c.) | Body weight changes ([3]; 30 nmol/kg single s.c.) | AUCinf [4] | Cmax [4] | T1/2 [4] | Tmax [4] | AUCinf [5] | Cmax [5] | T1/2 [5] | Tmax [5] | EC50 [6] |
| --- | --- | --- | --- | --- | --- | --- | --- | --- | --- | --- | --- | --- | --- | --- | --- | --- | --- |
| PKPEK(AEEAc-γGlu-CO(CH2)16COOH)PE-Aib-DASPEEWQRYY-Aib-ELRHYLNWLTRQRY-NH2 [Analogue 3] | 0.037 nM | > 50 nM | 9.73 ± 0.48 g | −1.04% ± 2.02% | 8.24 ± 0.27 g | −0.69% ± 1.64% | 6.24 ± 0.26 g | −6.52% ± 1.37% | 79.609 µg·h/mL | 1941 ng/mL | 24.7 h | 13.3 h | 336.537 µg·h/mL | 1775 ng/mL | 125.5 h | 12 h | 92.7 nM |
| PKPEK(AEEAc-γGlu-CO(CH2)16COOH)PEED-Aib-SPEEWQRYY-Aib-SLRHYLNWLTRQRY-NH2 [Analogue 1] | 0.041 nM | > 50 nM | 11.54 ± 0.40 g | 2.32% ± 2.53% | 9.29 ± 0.27 g | 1.23% ± 2.92% | 8.10 ± 0.26 g | 0.51% ± 2.56% |  |  |  |  |  |  |  |  |  |

Source: patent US20260285932A1, “PEPTIDE TYROSINE-TYROSINE ANALOG AND USE THEREOF” (THE UNITED BIO-TECHNOLOGY (HENGQIN) CO., LTD., priority 2023, published 2026)
